Reference: patent publication US7507766B2, “Treatment of cancers” (Pharma Mar, S.A., priority 2000, dated 2009)
Entries after “also recorded” stand apart in the source; their conditions may differ. Starred links: 1 amine or outer side, 2 acyl side, 3 side chain; linkers in the order of their positions; H or OH if unused. Positions of bridges follow the written chain, without caps; N, C: chain ends. Non-standard residues stand in square brackets, D forms with d. Residues, ends and D or L forms follow the SMILES beside them. *: point of attachment. X1 = CC[C@H](C)[C@@H](N[*:1])[C@@H](O)CC(=O)O[C@H](C(=O)[C@H](C)C(=O)[*:2])C(C)C; NMeY = CN[C@@H](Cc1ccc(O)cc1)C(=O)O; dNMeL = CN[C@H](CC(C)C)C(=O)O; Pyruvoyl = CC(=O)C(=O)*

Assays:
[1] = tested on: human colon cancer cell line, HT-29; details: cited from earlier work
[2] = tested on: human cancer xenografts; details: cited from earlier work
[3] = tested on: B16 melanoma; details: mice; cited from earlier work
[4] = tested on: VEGF protein; assay: production of VEGF protein by tumour cells; type: cell-based
[5] = tested on: lewis lung carcinomas; details: mouse, in vivo; cited from earlier work
[6] = tested on: spermidine and spermine; details: cited from earlier work
[7] = Phase I clinical studies: MTD, DLT and RD per dosing regime; type: in vivo, human
Excerpt: The Recommended Dose (RD) is the highest dose which can be safely administered to a patient producing tolerable, manageable and reversibly toxicity according to the Common Toxicity Criteria established by the National Cancer Institute, (USA) with no more than […] patients presenting any dose limiting toxicities (DLT). Guidelines for cancer therapy frequently call for administration of chemotherapeutic agents at the highest safe dose at which toxicity is manageable in order to achieve maximum efficacy (DeVita, V. T. Jr., Hellman, S. and Rosenberg, S. A., Cancer: Principles and Practice of Oncology, 3rd ed., 1989, Lipincott, Philadelphia).
DLTs for aplidine using this method of treatment were determined in clinical studies. These studies established a recommended dose level for differing kinds of dosing protocols.

[8] = stability of aplidine solution and lyophilised dosage form; details: heat and light stress testing
Experimental: In a currently preferred embodiment freeze-drying was performed from a […] solution of aplidine in 40% (v/v) tert-butanol in Water for Injection (Wfl) containing 25 mg/mL D-mannitol as bulking agent.

[9] = tested on: human bladder cancer; assay: human bladder cancer animal models; type: in vivo; details: complete remissions in some animal models
[10] = Phase I study, 24 h continuous infusion every other week: toxicities; type: in vivo, human
Experimental: (§1) Definitions for patient toxicities are adopted from WHO Criteria and the responses determined following WHO Response Criteria.
(§2) A phase I and pharmacokinetic study of aplidine, given as a 24 h continuous infusion every other week in patients with solid tumours and non-Hodgkin lymphoma

[11] = tested on: solid tumours and non-Hodgkin lymphoma; assay: clinical trials: antitumour responses in patients; type: in vivo, human
Experimental: as §1, §2

[12] = tested on: CT-1; details: cited from earlier work
[13] = tested on: Non-small cell lung cancer, breast cancer and melanoma cell lines; details: cited from earlier work
[14] = tested on: P388 leukaemia; details: mice; cited from earlier work
[15] = Phase I study, 24 h continuous infusion every other week: pharmacokinetics; type: in vivo, human
Experimental: as §2

[16] = tested on: MCF-7; details: aplidine 50 mmol/L; cited from earlier work
[17] = Phase I studies: aplidine myotoxicity and L-carnitine as myoprotector; type: in vivo, human
Experimental: More generally, the invention involves the use of a muscle protector in conjunction with aplidine therapy. We have found in particular that carnitine is beneficial in treating myotoxicity that is associated with chemotherapy with the experimental drug aplidine. […] When L-carnitine 4.5 g/day was added to the therapy (at doses of 1.5 g three times daily), or 0.1 mg/kg (at doses of 0.033 mg 3 times daily) patients were able to tolerate doses of aplidine up to 6000 mcg/m 2 every second week. […] Therefore, muscle protectors such as L-carnitine is a useful myoprotector for patients being treated with aplidine or an aplidine analogue.
L-carnitine at a dose of 1.5 grams 3 times per day or 0.033 g/kg 3 times per day was started in all patients of study APL-A-003-98.

[18] = dose level 200 mcg/m^2/2 wks, of 3 patients
[19] = dose level 400 mcg/m^2/2 wks, of 3 patients
[20] = dose level 800 mcg/m^2/2 wks, of 3 patients
[21] = dose level 1600 mcg/m^2/2 wks, of 6 patients
[22] = dose level 3200 mcg/m^2/2 wks, of 3 patients
[23] = dose level 4000 mcg/m^2/2 wks, of 3 patients
[24] = dose level 5000 mcg/m^2/2 wks, of 3 patients
[25] = dose level 6000 mcg/m^2/2 wks, of 12 patients
[26] = dose level 7000 mcg/m^2/2 wks, of 7 patients

CC[C@H](C)[C@H]1NC(=O)[C@@H](NC(=O)[C@@H](CC(C)C)N(C)C(=O)[C@@H]2CCCN2C(=O)C(C)=O)[C@@H](C)OC(=O)[C@H](Cc2ccc(OC)cc2)N(C)C(=O)[C@@H]2CCCN2C(=O)[C@H](CC(C)C)NC(=O)[C@@H](C)C(=O)[C@H](C(C)C)OC(=O)C[C@@H]1O [aplidine] (Pyruvoyl-P[dNMeL]T[X1]LP[NMeY](Me); ester 3-C)
cytotoxic activity [1]: dose-dependent cytotoxic activity | remissions ([2]; 2.1 mg/kg): near complete remissions in some animals | treated/control (T/C) tumour ratio ([2]; 2.1 mg/kg): 9% | maximum tolerated dose ([2]; mice): 2.1 mg/kg | activity against implanted B16 melanoma [3]: active | optimal dose [3]: 160 micro/kg | production of VEGF protein by tumour cells [4]: severely inhibit production | activity in SC implanted lewis lung carcinomas [5]: active | spermidine and spermine in treated cells [6]: significant increase | dose-limiting toxicity ([7]; 1-hour infusion for 5 consecutive days every 3 weeks): Muscular/long; also recorded: lasting emesis | dose-limiting factor ([7]; 4 Phase I trials): skeletal muscle toxicity | dose-limiting toxicity ([7]; 24 hour infusion every 2 weeks, L-carnitine daily): Flu-like | dose-limiting toxicity ([7]; weekly 24 hour infusion for 3 weeks, 1 week rest): Muscular/; also recorded: hepatic | RD of aplidine ([7]; with L-carnitine 0.1 g/kg/day in 3 portions, for Phase II studies): 7 mg/m^2 | degradation in solution [8]: substantial degradation | activity on human bladder cancer [9]: exceedingly high activity | muscle biopsies, E/M finding ([10]; 2 patients): partial disappearance of thick filaments of myosin | dose limiting toxicity (muscular changes), patients ([10]; 6000 mcg/m^2): 1/9 | time to recovery of toxicity after treatment discontinuation ([10]; Pat #27): ≤ 3 weeks | Nausea/vomiting G2, no. patients [10, 18]: 2 | Transaminitis G2, no. patients [10, 18]: 1 | Asthenia G2, no. patients [10, 19]: 2 | Hypertension G2, no. patients [10, 19]: 1 | Nausea/vomiting G2, no. patients [10, 19]: 1 | Flushing G1, no. patients [10, 20]: 1 | Muscle cramps G1 + G2, no. patients [10, 20]: 2 | Asthenia G2, no. patients [10, 21]: 2 | Asthenia G3, no. patients [10, 21]: 1 | Muscle cramps G1 + G2, no. patients [10, 21]: 1 | Nausea/vomiting G2, no. patients [10, 21]: 4 | Transaminitis G3, no. patients [10, 21]: (1) | Asthenia G2, no. patients [10, 22]: 1 | Flushing G1, no. patients [10, 22]: 1 | Muscle cramps G1 + G2, no. patients [10, 22]: 2 | Muscle pain G2, no. patients [10, 22]: (1) | Nausea/vomiting G3, no. patients [10, 22]: (1) | Asthenia G2, no. patients [10, 23]: 1 | Flushing G1, no. patients [10, 23]: 1 | Muscle cramps G1 + G2, no. patients [10, 23]: 2 | Muscle pain G1, no. patients [10, 23]: 2 | Nausea/vomiting G2, no. patients [10, 23]: 2 | Pain central catheter G2, no. patients [10, 23]: 2 | Asthenia G3, no. patients [10, 24]: (1) | CPK elevation G3, no. patients [10, 24]: (1) [1] | CPK elevation G4, no. patients [10, 24]: (1) [1] | Muscle cramps G1 + G2, no. patients [10, 24]: 2 | Muscle pain G1, no. patients [10, 24]: 1 | Muscle weakness G1, no. patients [10, 24]: 1 | Nausea/vomiting G2, no. patients [10, 24]: 1 | Transaminitis G2, no. patients [10, 24]: 1 | Asthenia G2, no. patients [10, 25]: 6 | CPK elevation G2, no. patients [10, 25]: 1(1) | CPK elevation G3, no. patients [10, 25]: 1(1) | Muscle cramps G1 + G2, no. patients [10, 25]: 1 | Muscle pain G1, no. patients [10, 25]: 1 | Muscle pain G2, no. patients [10, 25]: 2 | Muscle weakness G1, no. patients [10, 25]: 1(1) | Muscle weakness G2, no. patients [10, 25]: 1(1) | Nausea/vomiting G2, no. patients [10, 25]: 2 | Asthenia G2, no. patients [10, 26]: 2 | CPK elevation G2, no. patients [10, 26]: 1 | Flushing G1, no. patients [10, 26]: 1 | Muscle pain G1, no. patients [10, 26]: 1 | Nausea/vomiting G2, no. patients [10, 26]: 1 | Neutrophenia G4, no. patients [10, 26]: 1 | Transaminitis G2, no. patients [10, 26]: 1 | responses in cancer patients ([11]; clinical trials): Responses in cancer patients have been observed | antitumour activity in patients ([11]; patients with NHL and renal carcinoma): Antitumour activity has been also noted | cytotoxic activity [12]: dose-dependent cytotoxic activity | growth of tumour cell lines ([13]; continuous exposure to low concentrations, non-Hodgkin's lymphoma, melanoma, breast, ovarian, non-small cell lung cancers): inhibited the growth | concentration at which cell lines were sensitive ([13]; continuous exposure): >= 0.001 micromol/L | activity against implanted P388 leukaemia [14]: active | optimal dose [14]: 160 micro/kg | t ½ in the 3 patients with clear muscular toxicity ([15]; 24 h infusion): > 44 h | coefficient of variation of CL (interpatient) ([15]; human, in vivo): 62% | PK profile ([15]; low sample size): dose-linear | terminal phase median half-life ([15]; preliminary compartmental analysis, 24 h infusion): 25.8 h | initial phase median half-life ([15]; preliminary compartmental analysis, first-order 2-compartment model): 0.64 h | t ½, median ([15]; quartiles 15.7-35.0): 23.8 h | plasma CL, median ([15]; quartiles 192-415): 252 mL/min/m^2 | Vss, median ([15]; quartiles 274-638): 413 L/m^2 | growth inhibition [16]: 47% | toxicity in some subjects without L-carnitine ([17]; 24-hour infusion, 4500 mcg/m^2 every week, then 6000 mcg/m^2 every second week): muscular and skeletal toxicity | new dose-limiting factor under L-carnitine prophylaxis ([17]; 24 h every other week infusion study): non-muscular | electron microscopy of muscle, most important change ([17]; biopsied patients): disappearance of thick filaments | dose from which muscle cramps occur (mild cases) ([17]; every 2 weeks): ≥ 3200 mcg/m2 | onset of myotoxicity, number of infusions, median ([17]; in vivo): 4 infusions | relationship of myotoxicity to exposure ([17]; in vivo): related to prolonged exposure rather than high exposure or concentrations | reversible increases in creatin-kinase (CK), grade reached ([17]; more severe cases): ≤ 3 grade
